# Measured values reported in article PMC11494662, “Insight into the Course of the Ferrier Rearrangement Used to Obtain Untypical Diosgenyl Saponins” (The Journal of Organic Chemistry, 2024).
# pIC50: −log10 of the molar value.
# How the values were obtained:
# [1] = test system: prostate cancer cells (PC3 line); assay: MTT cytotoxicity assay, PC3; format: cell-based, human; conditions: for pIC50: Homo sapiens, PC-3; for pIC50 / IC50 PC3: PC3 cells, 48 h treatment, MTT; for SI PC3 (selectivity index): ratio of IC50 for normal cell line (HaCaT) to IC50 for PC3, 48 h
# Experimental: (§1) The MTT assay was performed to specify the cytotoxicity of 7–12 and 13–18 against prostate cancer cells (PC3 line), breast cancer cells (MCF7 line), and human keratinocytes (HaCaT line). The mentioned cell lines were assayed by exposing them for 48 h to a medium containing the studied compounds over a wide range of concentrations. The IC50 values (dose of the compound which caused a 50% reduction of cell viability) and the selectivity indexes (SI), which show the ratio of IC50 for normal cell line to IC50 for cancer cell line, are shown in Table S2. An MTT assay was performed to specify the cytotoxicity of the studied compounds against breast cancer cells (MCF-7 line, ATCC), prostate cancer cells (PC3 line, ATCC) and human keratinocytes (HaCaT line, CLS). The MCF-7 cell line was cultured in an RPMI 1640 medium (Gibco, Thermo Fisher Scientific), the PC3 cell line in a F-12K medium (Gibco, Thermo Fisher Scientific), and the HaCaT cell line in a high-glucose DMEM (Gibco, Thermo Fisher Scientific). Each medium was supplemented with 10% fetal bovine serum (Gibco, Thermo Fisher Scientific) and antibiotics (penicillin and streptomycin, Gibco, Thermo Fisher Scientific). Cells were seeded at a density of 4000 per well into 96-well plates and incubated at 37 °C in a 5% CO2 atmosphere. The cells were treated with studied compounds in a concentration range of 0.1–100 μg/mL or with a vehicle (1% DMSO) as a control and subsequently incubated for 48 h. Thereafter, the MTT salt solution (3-(4,5-dimethylthiazol-2-yl)-2,5-diphenyltetrazolium bromide, VWR) was added at a concentration of 4 mg/mL (25 μL per well), and the obtained product (formazan) after 3 h of incubation was dissolved in DMSO. An EnSpire microplate reader (PerkinElmer) was used to measure absorbance at 570 nm (the reference wavelength was 660 nm). The viability of the control cells was taken as 100%. Three independent experiments were conducted in triplicate. Statistical analysis of the results and estimation of IC50 values were performed using GraphPad Prism 7 software.
# [2] = test system: breast cancer cells (MCF-7 line); assay: MTT cytotoxicity assay, MCF7; format: cell-based, human; conditions: for pIC50: Homo sapiens; for pIC50 / IC50 MCF7: MCF7 cells, 48 h treatment, MTT; for SI MCF7 (selectivity index): ratio of IC50 for normal cell line (HaCaT) to IC50 for MCF7, 48 h
# Experimental: as §1
# [3] = test system: human keratinocytes (HaCaT line); assay: MTT cytotoxicity assay, HaCaT; format: cell-based; conditions: HaCaT normal cells, 48 h treatment; for pIC50: Homo sapiens
# Experimental: as §1
# [4] = test system: E. faecium ATCC 29212; assay: MIC, broth dilution method; format: cell-based; conditions: Enterococcus faecium, ATCC29212; MHB II, 18 h, 37 °C; read-out: Minimum inhibitory concentration E. faecium ATCC 29212
# Experimental: (§2) MIC was determined with the dilution method in Mueller–Hinton II broth (MHB II) on 96-well polystyrene plates. The reference strains (Polish Academy of Sciences, Wroclaw, Poland) of Gram-positive bacteria (Enterococcus faecium ATCC 29,212, S. aureus ATCC 6538, S. aureus ATCC 43,300, S. aureus ATCC 12,598, S. aureus ATCC 25,923, S. aureus, ATCC 33,591, Staphylococcus epidermidis ATCC 14,990) and Gram-negative bacteria (Acinetobacter baumanii ATCC 23,506, Escherichia coli ATCC 25,922, Klebsiella pneumoniae ATCC 700,603, Pseudomonas aeruginosa ATCC 9027) were suspended in MHB II medium to initial inoculum of 10^5 cfu/mL. The microbes were exposed to graded concentrations of tested compounds (range 0.5–256 mg/L) for 18 h at 37 °C under aerobic conditions. The compounds were dissolved in DMSO and then diluted with PBS. […] MIC was taken as the lowest concentration at which no microbial growth was observed. The experiments were performed in triplicate.
# [5] = test system: S. aureus ATCC 12598; assay: MIC, broth dilution method; format: cell-based; conditions: Staphylococcus aureus, ATCC12598; MHB II, 18 h, 37 °C; read-out: Minimum inhibitory concentration S. aureus ATCC 12598
# Experimental: as §2
# [6] = test system: S. aureus ATCC 25923; assay: MIC, broth dilution method; format: cell-based; conditions: Staphylococcus aureus, ATCC25923; MHB II, 18 h, 37 °C; read-out: Minimum inhibitory concentration S. aureus ATCC 25923
# Experimental: as §2
# [7] = test system: S. aureus ATCC 33591; assay: MIC, broth dilution method; format: cell-based; conditions: Staphylococcus aureus, ATCC33591; MHB II, 18 h, 37 °C; read-out: Minimum inhibitory concentration S. aureus ATCC 33591
# Experimental: as §2
# [8] = test system: S. aureus ATCC 43300; assay: MIC, broth dilution method; format: cell-based; conditions: Staphylococcus aureus, ATCC43300; MHB II, 18 h, 37 °C; read-out: Minimum inhibitory concentration S. aureus ATCC 43300
# Experimental: as §2
# [9] = test system: S. aureus ATCC 6538; assay: MIC, broth dilution method; format: cell-based; conditions: Staphylococcus aureus, ATCC6538; MHB II, 18 h, 37 °C; read-out: Minimum inhibitory concentration S. aureus ATCC 6538
# Experimental: as §2
# [10] = test system: S. epidermidis ATCC 14990; assay: MIC, broth dilution method; format: cell-based; conditions: Staphylococcus epidermidis, ATCC14990; MHB II, 18 h, 37 °C; read-out: Minimum inhibitory concentration S. epidermidis ATCC 14990
# Experimental: as §2
Structure (SMILES),pIC50 [1],SI PC3 (selectivity index) [1],pIC50 [2],SI MCF7 (selectivity index) [2],pIC50 [3],MIC [4] [µg/mL],MIC [5] [µg/mL],MIC [6] [µg/mL],MIC [7] [µg/mL],MIC [8] [µg/mL],MIC [9] [µg/mL],MIC [10] [µg/mL],other results
"C[C@@H]1CC[C@@]2(OC1)O[C@H]1C[C@H]3[C@@H]4CC=C5C[C@@H](O[C@H]6C=C[C@H](O)[C@H](C)O6)CC[C@]5(C)[C@H]4CC[C@]3(C)[C@H]1[C@@H]2C [10α, Diosgenyl 2,3,6-Trideoxy-α-L-threo-hex-2-enopyranoside]",4.30,1.02,4.24,0.88,4.29,> 256,> 256,> 256,> 256,> 256,> 256,> 256,–
C[C@@H]1CC[C@@]2(OC1)O[C@H]1C[C@H]3[C@@H]4CC=C5C[C@@H](O[C@H]6C=C[C@H](O)CO6)CC[C@]5(C)[C@H]4CC[C@]3(C)[C@H]1[C@@H]2C [11β],–,–,–,–,–,> 256,> 256,> 256,> 256,> 256,> 256,> 256,IC50 PC3 [1]: completely inactive; IC50 PC3 ([1]; listed as 11): inactive; IC50 MCF7 [2]: completely inactive; IC50 MCF7 ([2]; listed as 11): inactive; IC50 HaCaT [3]: completely inactive; IC50 HaCaT ([3]; listed as 11): inactive
C[C@@H]1CC[C@@]2(OC1)O[C@H]1C[C@H]3[C@@H]4CC=C5C[C@@H](O[C@@H]6CC[C@@H](O)CO6)CC[C@]5(C)[C@H]4CC[C@]3(C)[C@H]1[C@@H]2C [18β],4.54,ca. 2,4.57,ca. 2,4.22,> 256,> 256,> 256,> 256,> 256,> 256,> 256,SI PC3 (selectivity index) ([1]; listed as 18): 2.07; SI MCF7 (selectivity index) ([2]; listed as 18): 2.23
"C[C@@H]1CC[C@@]2(OC1)O[C@H]1C[C@H]3[C@@H]4CC=C5C[C@@H](O[C@@H]6CC[C@H](O)[C@@H](CO)O6)CC[C@]5(C)[C@H]4CC[C@]3(C)[C@H]1[C@@H]2C [13α, Diosgenyl 2,3-Dideoxy-α-D-erythro-hexopyranoside]",4.65,0.96,4.41,0.56,4.67,> 256,> 256,> 256,> 256,> 256,> 256,> 256,–
C[C@@H]1CC[C@@]2(OC1)O[C@H]1C[C@H]3[C@@H]4CC=C5C[C@@H](O[C@@H]6C=C[C@@H](O)CO6)CC[C@]5(C)[C@H]4CC[C@]3(C)[C@H]1[C@@H]2C [12β],4.56,–,4.45,ca. 2,4.24,> 256,> 256,> 256,> 256,> 256,256,> 256,SI MCF7 (selectivity index) ([2]; listed as 12): 1.62
"C[C@@H]1CC[C@@]2(OC1)O[C@H]1C[C@H]3[C@@H]4CC=C5C[C@@H](O[C@H]6C=C[C@@H](O)[C@H](C)O6)CC[C@]5(C)[C@H]4CC[C@]3(C)[C@H]1[C@@H]2C [9α, Diosgenyl 2,3,6-Trideoxy-α-L-erythro-hex-2-enopyranoside]",4.60,1.71,3.74,0.24,4.36,> 256,> 256,> 256,> 256,> 256,> 256,> 256,–
"C[C@@H]1CC[C@@]2(OC1)O[C@H]1C[C@H]3[C@@H]4CC=C5C[C@@H](O[C@H]6CC[C@@H](O)[C@H](C)O6)CC[C@]5(C)[C@H]4CC[C@]3(C)[C@H]1[C@@H]2C [15α, Diosgenyl 2,3,6-Trideoxy-α-L-erythro-hexopyranoside]",4.58,–,4.06,–,4.25,> 256,> 256,256,> 256,> 256,256,> 256,–
C[C@@H]1CC[C@@]2(OC1)O[C@H]1C[C@H]3[C@@H]4CC=C5C[C@@H](O[C@@H]6C=C[C@H](O)CO6)CC[C@]5(C)[C@H]4CC[C@]3(C)[C@H]1[C@@H]2C [11α],4.61,1.00,4.39,0.60,4.61,> 256,> 256,> 256,> 256,> 256,256,256,–
